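Dose response: 5 concentrations. Exposure: 48 h. Format: 96-well plates. Endpoint: linear interpolation; highest concentration if not reached. TGI: concentration producing complete growth inhibition.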
What was measured:
Experiment in all cases: DTP human tumour cell line panel, 48 h
786-0 renal = test system: 786-0 renal
A498 renal = test system: A498 renal
A549 NSCLC = test system: A549 NSCLC
ACHN renal = test system: ACHN renal
CAKI-1 renal = test system: CAKI-1 renal
CCRF-CEM leukemia = test system: CCRF-CEM leukemia
DLD-1 colon = test system: DLD-1 colon
DMS 114 small cell lung = test system: DMS 114 small cell lung
DMS 273 small cell lung = test system: DMS 273 small cell lung
EKVX NSCLC = test system: EKVX NSCLC
HCC-2998 colon = test system: HCC-2998 colon
HCT-116 colon = test system: HCT-116 colon
HCT-15 colon = test system: HCT-15 colon
HL-60(TB) leukemia = test system: HL-60(TB) leukemia
HOP-62 NSCLC = test system: HOP-62 NSCLC
HT29 colon = test system: HT29 colon
IGROV1 ovarian = test system: IGROV1 ovarian
K-562 leukemia = test system: K-562 leukemia
KM12 colon = test system: KM12 colon
KM20L2 colon = test system: KM20L2 colon
LXFL 529 NSCLC = test system: LXFL 529 NSCLC
M14 melanoma = test system: M14 melanoma
M19-MEL melanoma = test system: M19-MEL melanoma
MALME-3M melanoma = test system: MALME-3M melanoma
MOLT-4 leukemia = test system: MOLT-4 leukemia
NCI-H226 lung = test system: NCI-H226 lung
NCI-H23 lung = test system: NCI-H23 lung
NCI-H460 lung = test system: NCI-H460 lung
OVCAR-3 ovarian = test system: OVCAR-3 ovarian
OVCAR-4 ovarian = test system: OVCAR-4 ovarian
OVCAR-5 ovarian = test system: OVCAR-5 ovarian
OVCAR-8 ovarian = test system: OVCAR-8 ovarian
RPMI-8226 leukemia = test system: RPMI-8226 leukemia
RXF 393 renal = test system: RXF 393 renal
RXF-631 renal = test system: RXF-631 renal
SF-295 CNS = test system: SF-295 CNS
SF-539 CNS = test system: SF-539 CNS
SK-MEL-2 melanoma = test system: SK-MEL-2 melanoma
SK-MEL-28 melanoma = test system: SK-MEL-28 melanoma
SK-MEL-5 melanoma = test system: SK-MEL-5 melanoma
SK-OV-3 ovarian = test system: SK-OV-3 ovarian
SNB-75 CNS = test system: SNB-75 CNS
SNB-78 CNS = test system: SNB-78 CNS
SW-620 colon = test system: SW-620 colon
TK-10 renal = test system: TK-10 renal
U251 CNS = test system: U251 CNS
UACC-257 melanoma = test system: UACC-257 melanoma
UACC-62 melanoma = test system: UACC-62 melanoma
UO-31 renal = test system: UO-31 renal
XF 498 CNS = test system: XF 498 CNS
COLO 205 colon = test system: COLO 205 colon
HOP-92 NSCLC = test system: HOP-92 NSCLC
LOX IMVI melanoma = test system: LOX IMVI melanoma
NCI-H522 lung = test system: NCI-H522 lung
SF-268 CNS = test system: SF-268 CNS
SN12C renal = test system: SN12C renal
SNB-19 CNS = test system: SNB-19 CNS

C[C@]12CCC(=O)C=C1CC[C@@H]1C2CC[C@]2(C)Nc3c(cnn3-c3ccccc3)CC12 (some centres not stated)
TGI (786-0 renal): > 100 µM
TGI (A498 renal): > 100 µM
TGI (A549 NSCLC): > 100 µM
TGI (ACHN renal): > 100 µM
TGI (CAKI-1 renal): > 100 µM
TGI (CCRF-CEM leukemia): > 100 µM
TGI (DLD-1 colon): > 100 µM
TGI (DMS 114 small cell lung): > 100 µM
TGI (DMS 273 small cell lung): > 100 µM
TGI (EKVX NSCLC): > 100 µM
TGI (HCC-2998 colon): > 100 µM
TGI (HCT-116 colon): > 100 µM
TGI (HCT-15 colon): > 100 µM
TGI (HL-60(TB) leukemia): > 100 µM
TGI (HOP-62 NSCLC): > 100 µM
TGI (HT29 colon): > 100 µM
TGI (IGROV1 ovarian): > 100 µM
TGI (K-562 leukemia): > 100 µM
TGI (KM12 colon): > 10 µM
TGI (KM20L2 colon): > 100 µM
TGI (LXFL 529 NSCLC): > 100 µM
TGI (M14 melanoma): > 100 µM
TGI (M19-MEL melanoma): > 100 µM
TGI (MALME-3M melanoma): > 100 µM
TGI (MOLT-4 leukemia): > 100 µM
TGI (NCI-H226 lung): > 100 µM
TGI (NCI-H23 lung): > 100 µM
TGI (NCI-H460 lung): > 100 µM
TGI (OVCAR-3 ovarian): > 10 µM
TGI (OVCAR-4 ovarian): > 100 µM
TGI (OVCAR-5 ovarian): > 100 µM
TGI (OVCAR-8 ovarian): > 100 µM
TGI (RPMI-8226 leukemia): > 100 µM
TGI (RXF 393 renal): > 100 µM
TGI (RXF-631 renal): > 100 µM
TGI (SF-295 CNS): > 10 µM
TGI (SF-539 CNS): > 100 µM
TGI (SK-MEL-2 melanoma): > 100 µM
TGI (SK-MEL-28 melanoma): > 100 µM
TGI (SK-MEL-5 melanoma): > 100 µM
TGI (SK-OV-3 ovarian): > 100 µM
TGI (SNB-75 CNS): > 100 µM
TGI (SNB-78 CNS): > 100 µM
TGI (SW-620 colon): > 100 µM
TGI (TK-10 renal): > 100 µM
TGI (U251 CNS): > 100 µM
TGI (UACC-257 melanoma): > 100 µM
TGI (UACC-62 melanoma): > 100 µM
TGI (UO-31 renal): > 100 µM
TGI (XF 498 CNS): > 100 µM

O=C(CC(=O)C1=CNc2ccccc2S1)C(=O)Nc1ccc(Cl)cc1
TGI (786-0 renal): > 50 µM
TGI (A498 renal): > 50 µM
TGI (A549 NSCLC): > 50 µM
TGI (ACHN renal): > 50 µM
TGI (CAKI-1 renal): > 50 µM
TGI (CCRF-CEM leukemia): > 50 µM
TGI (COLO 205 colon): > 50 µM
TGI (DLD-1 colon): > 50 µM
TGI (DMS 114 small cell lung): > 50 µM
TGI (DMS 273 small cell lung): > 50 µM
TGI (EKVX NSCLC): > 50 µM
TGI (HCC-2998 colon): > 50 µM
TGI (HCT-116 colon): > 50 µM
TGI (HCT-15 colon): > 50 µM
TGI (HL-60(TB) leukemia): 49.6 µM
TGI (HOP-62 NSCLC): > 50 µM
TGI (HOP-92 NSCLC): > 50 µM
TGI (HT29 colon): > 50 µM
TGI (IGROV1 ovarian): > 50 µM
TGI (K-562 leukemia): > 50 µM
TGI (KM12 colon): > 50 µM
TGI (KM20L2 colon): > 50 µM
TGI (LOX IMVI melanoma): > 50 µM
TGI (LXFL 529 NSCLC): > 50 µM
TGI (M14 melanoma): > 50 µM
TGI (M19-MEL melanoma): > 50 µM
TGI (MALME-3M melanoma): > 50 µM
TGI (MOLT-4 leukemia): > 50 µM
TGI (NCI-H226 lung): > 50 µM
TGI (NCI-H23 lung): > 50 µM
TGI (NCI-H460 lung): > 50 µM
TGI (NCI-H522 lung): > 50 µM
TGI (OVCAR-3 ovarian): > 50 µM
TGI (OVCAR-4 ovarian): > 50 µM
TGI (OVCAR-5 ovarian): > 50 µM
TGI (OVCAR-8 ovarian): > 50 µM
TGI (RPMI-8226 leukemia): > 50 µM
TGI (RXF 393 renal): > 50 µM
TGI (RXF-631 renal): > 50 µM
TGI (SF-268 CNS): > 50 µM
TGI (SF-295 CNS): > 50 µM
TGI (SF-539 CNS): > 50 µM
TGI (SK-MEL-2 melanoma): > 50 µM
TGI (SK-MEL-28 melanoma): > 50 µM
TGI (SK-MEL-5 melanoma): > 50 µM
TGI (SK-OV-3 ovarian): > 50 µM
TGI (SN12C renal): > 50 µM
TGI (SNB-19 CNS): > 50 µM
TGI (SNB-75 CNS): > 50 µM
TGI (SNB-78 CNS): > 50 µM
TGI (SW-620 colon): > 50 µM
TGI (TK-10 renal): > 50 µM
TGI (U251 CNS): > 50 µM
TGI (UACC-257 melanoma): > 50 µM
TGI (UACC-62 melanoma): > 50 µM
TGI (UO-31 renal): > 50 µM
TGI (XF 498 CNS): > 50 µM

Source: PubChem BioAssay (NCI)
